# Source: patent publication US20230085307A1, “PYRIDAZINONE COMPOUND AND HERBICIDE” (NISSAN CHEMICAL CORPORATION, priority 2019, published 2023)
# Columns and labels:
# wild oat [1] = assay: Test Example 4: herbicidal effect by soil treatment (Table 19, symbol I); format: in vivo, wild oat (Avena fatua)
# Method in brief: (§1)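 In this soil treatment, the formulated compound reached the seeds only through the soil: seeds were buried about 1.5 cm deep in sterilized diluvial soil, then the diluted emulsion was sprayed over the surface. After three weeks at 25° C. to 30° C. in a greenhouse, effects were graded on criteria from an earlier test.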
# persian speedwell [2] = assay: Test Example 5: herbicidal effect by foliage application, plastic box (Table 20, symbol R); format: in vivo, Persian speedwell (Veronica persica); conditions: foliage application, three weeks after application
# Method in brief: (§2)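 Plants were sown into sterilized diluvial soil under about 1.5 cm cover and kept in a greenhouse at 25° C. to 30° C. Fourteen days on, foliage received an even spray of the diluted emulsion. Herbicidal or crop effect was judged three weeks afterwards.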
# Chinese sprangletop = assay: Test Example 3: herbicidal effect by foliage application, Wagner pot (Table 18, symbol D); format: in vivo, chinese sprangletop (Leptochloa chinensis)
# Method in brief: (§3)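 Plants were sown in alluvial soil held under 0.1–0.5 cm standing water and grown 14 days in a greenhouse at 25–30 °C. An emulsifiable formulation, water-diluted to the set dose, was then sprayed onto the foliage, and effects were scored three weeks later using previously defined criteria.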
# lambsquarters [3] = assay: Test Example 5: herbicidal effect by foliage application, plastic box (Table 20, symbol O); format: in vivo, lambsquarters (Chenopodium album); conditions: foliage application, three weeks after application
# Method in brief: as §2
# redroot pigweed [4] = assay: Test Example 4: herbicidal effect by soil treatment (Table 19, symbol N); format: in vivo, redroot pigweed (Amaranthus retroflexus)
# Method in brief: as §1
# redroot pigweed [5] = assay: Test Example 5: herbicidal effect by foliage application, plastic box (Table 20, symbol N); format: in vivo, redroot pigweed (Amaranthus retroflexus); conditions: foliage application, three weeks after application
# Method in brief: as §2
# late watergrass = assay: Test Example 1: herbicidal activity, application before weed generation under submerged conditions (Table 16, symbol A); format: in vivo, late watergrass (Echinochloa oryzicola)
# Method in brief: (§4)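 Emulsion formulation, water-diluted to set dose, was put onto the flooded surface (4 cm depth, alluvial soil) the same day weeds were sown and 2.5-leaf rice transplanted. After 3 weeks at 25-30 °C under glass, each species was rated 0 (≤5% kill) to 5 (≥90% kill).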
# velvetleaf [6] = assay: Test Example 5: herbicidal effect by foliage application, plastic box (Table 20, symbol M); format: in vivo, velvetleaf (Abutilon theophrasti); conditions: foliage application, three weeks after application
# Method in brief: as §2
# southern crabgrass [7] = assay: Test Example 5: herbicidal effect by foliage application, plastic box (Table 20, symbol F); format: in vivo, southern crabgrass (Digitaria ciliaris); conditions: foliage application, three weeks after application
# Method in brief: as §2
# chickweed [8] = assay: Test Example 5: herbicidal effect by foliage application, plastic box (Table 20, symbol P); format: in vivo, common chickweed (Stellaria media); conditions: foliage application, three weeks after application
# Method in brief: as §2
# barnyard grass [9] = assay: Test Example 5: herbicidal effect by foliage application, plastic box (Table 20, symbol H); format: in vivo, barnyard grass (Echinochloa crus-galli); conditions: foliage application, three weeks after application
# Method in brief: as §2
# wild oat [10] = assay: Test Example 5: herbicidal effect by foliage application, plastic box (Table 20, symbol I); format: in vivo, wild oat (Avena fatua); conditions: foliage application, three weeks after application
# Method in brief: as §2
# Italian ryegrass [11] = assay: Test Example 4: herbicidal effect by soil treatment (Table 19, symbol K); format: in vivo, Italian ryegrass (Lolium multiflorum)
# Method in brief: as §1
# barnyard grass [12] = assay: Test Example 3: herbicidal effect by foliage application, Wagner pot (Table 18, symbol H); format: in vivo, barnyard grass (Echinochloa crus-galli)
# Method in brief: as §3
# Italian ryegrass [13] = assay: Test Example 5: herbicidal effect by foliage application, plastic box (Table 20, symbol K); format: in vivo, Italian ryegrass (Lolium multiflorum); conditions: foliage application, three weeks after application
# Method in brief: as §2
# Japanese bulrush = assay: Test Example 1: herbicidal activity, application before weed generation under submerged conditions (Table 16, symbol B); format: in vivo, Japanese bulrush (Schoenoplectus juncoides)
# Method in brief: as §4
# oval-leafed pondweed = assay: Test Example 1: herbicidal activity, application before weed generation under submerged conditions (Table 16, symbol C); format: in vivo, oval-leafed pondweed (Monochoria vaginalis)
# Method in brief: as §4
# blackgrass [14] = assay: Test Example 4: herbicidal effect by soil treatment (Table 19, symbol J); format: in vivo, blackgrass (Alopecurus myosuroides)
# Method in brief: as §1
# rice flat sedge = assay: Test Example 3: herbicidal effect by foliage application, Wagner pot (Table 18, symbol E); format: in vivo, rice flat sedge (Cyperus iria); conditions: 272 g/ha
# Method in brief: as §3
# windgrass [15] = assay: Test Example 4: herbicidal effect by soil treatment (Table 19, symbol L); format: in vivo, windgrass (Apera spica-venti)
# Method in brief: as §1
# barnyard grass [16] = assay: Test Example 4: herbicidal effect by soil treatment (Table 19, symbol H); format: in vivo, barnyard grass (Echinochloa crus-galli)
# Method in brief: as §1
# persian speedwell [17] = assay: Test Example 4: herbicidal effect by soil treatment (Table 19, symbol R); format: in vivo, Persian speedwell (Veronica persica)
# Method in brief: as §1
# blackgrass [18] = assay: Test Example 5: herbicidal effect by foliage application, plastic box (Table 20, symbol J); format: in vivo, blackgrass (Alopecurus myosuroides); conditions: foliage application, three weeks after application
# Method in brief: as §2
# chickweed [19] = assay: Test Example 4: herbicidal effect by soil treatment (Table 19, symbol P); format: in vivo, common chickweed (Stellaria media)
# Method in brief: as §1
# windgrass [20] = assay: Test Example 5: herbicidal effect by foliage application, plastic box (Table 20, symbol L); format: in vivo, windgrass (Apera spica-venti); conditions: foliage application, three weeks after application
# Method in brief: as §2
# green foxtail [21] = assay: Test Example 4: herbicidal effect by soil treatment (Table 19, symbol G); format: in vivo, green foxtail (Setaria viridis)
# Method in brief: as §1
# velvetleaf [22] = assay: Test Example 4: herbicidal effect by soil treatment (Table 19, symbol M); format: in vivo, velvetleaf (Abutilon theophrasti)
# Method in brief: as §1
# southern crabgrass [23] = assay: Test Example 4: herbicidal effect by soil treatment (Table 19, symbol F); format: in vivo, southern crabgrass (Digitaria ciliaris)
# Method in brief: as §1
# lambsquarters [24] = assay: Test Example 4: herbicidal effect by soil treatment (Table 19, symbol O); format: in vivo, lambsquarters (Chenopodium album)
# Method in brief: as §1
# green foxtail [25] = assay: Test Example 5: herbicidal effect by foliage application, plastic box (Table 20, symbol G); format: in vivo, green foxtail (Setaria viridis); conditions: foliage application, three weeks after application
# Method in brief: as §2
# [26] = amount of applied herbicide 272 g/ha
compound,measurement,setting,value
COc1cc(F)ccc1-c1sc2ccccc2c1-c1c(O)c(C)nn(C)c1=O [1-055],"herbicidal effect rating, I: wild oat",wild oat [1]; [26],3 (Herbicidal rate of 40% or more and less than 70%)
same,"herbicidal effect grade, R: persian speedwell",persian speedwell [2]; 272 g/ha,4 (Herbicidal rate of 70% or more and less than 90%)
same,"herbicidal effect on D (Chinese sprangletop), rating 0-5",Chinese sprangletop; 272 g/ha,2 (Herbicidal rate of 20% or more and less than 40%)
same,"herbicidal effect grade, O: lambsquarters",lambsquarters [3]; 272 g/ha,2 (Herbicidal rate of 20% or more and less than 40%)
same,"herbicidal effect rating, N: redroot pigweed",redroot pigweed [4]; [26],5 (Herbicidal rate of 90% or more (almost completely withered))
same,"herbicidal effect grade, N: redroot pigweed",redroot pigweed [5]; 272 g/ha,3 (Herbicidal rate of 40% or more and less than 70%)
same,Herbicidal effect on A: late watergrass (grade 0-5),late watergrass; 272 g/ha applied herbicide,4 (Herbicidal rate of 70% or more and less than 90%)
same,"herbicidal effect grade, M: velvetleaf",velvetleaf [6]; 272 g/ha,3 (Herbicidal rate of 40% or more and less than 70%)
same,"herbicidal effect grade, F: southern crabgrass",southern crabgrass [7]; 272 g/ha,4 (Herbicidal rate of 70% or more and less than 90%)
same,"herbicidal effect grade, P: chickweed",chickweed [8]; 272 g/ha,5 (Herbicidal rate of 90% or more (almost completely withered))
same,"herbicidal effect grade, H: barnyard grass",barnyard grass [9]; 272 g/ha,4 (Herbicidal rate of 70% or more and less than 90%)
same,"herbicidal effect grade, I: wild oat",wild oat [10]; 272 g/ha,5 (Herbicidal rate of 90% or more (almost completely withered))
same,"herbicidal effect rating, K: Italian ryegrass",Italian ryegrass [11]; [26],3 (Herbicidal rate of 40% or more and less than 70%)
same,"herbicidal effect on H (barnyard grass), rating 0-5",barnyard grass [12]; 272 g/ha,5 (Herbicidal rate of 90% or more (almost completely withered))
same,"herbicidal effect grade, K: Italian ryegrass",Italian ryegrass [13]; 272 g/ha,4 (Herbicidal rate of 70% or more and less than 90%)
same,Herbicidal effect on B: Japanese bulrush (grade 0-5),Japanese bulrush; 272 g/ha applied herbicide,0 (Herbicidal rate of 5% or less (almost no effect))
same,Herbicidal effect on C: oval-leafed pondweed (grade 0-5),oval-leafed pondweed; 272 g/ha applied herbicide,0 (Herbicidal rate of 5% or less (almost no effect))
same,"herbicidal effect rating, J: blackgrass",blackgrass [14]; [26],3 (Herbicidal rate of 40% or more and less than 70%)
same,"herbicidal effect on E (rice flat sedge), rating 0-5",rice flat sedge,5 (Herbicidal rate of 90% or more (almost completely withered))
same,"herbicidal effect rating, L: windgrass",windgrass [15]; [26],3 (Herbicidal rate of 40% or more and less than 70%)
same,"herbicidal effect rating, H: barnyard grass",barnyard grass [16]; [26],4 (Herbicidal rate of 70% or more and less than 90%)
same,"herbicidal effect rating, R: persian speedwell",persian speedwell [17]; [26],5 (Herbicidal rate of 90% or more (almost completely withered))
same,"herbicidal effect grade, J: blackgrass",blackgrass [18]; 272 g/ha,5 (Herbicidal rate of 90% or more (almost completely withered))
same,"herbicidal effect rating, P: chickweed",chickweed [19]; [26],5 (Herbicidal rate of 90% or more (almost completely withered))
same,"herbicidal effect grade, L: windgrass",windgrass [20]; 272 g/ha,5 (Herbicidal rate of 90% or more (almost completely withered))
same,"herbicidal effect rating, G: green foxtail",green foxtail [21]; [26],5 (Herbicidal rate of 90% or more (almost completely withered))
same,"herbicidal effect rating, M: velvetleaf",velvetleaf [22]; [26],0 (Herbicidal rate of 5% or less (almost no effect))
same,"herbicidal effect rating, F: southern crabgrass",southern crabgrass [23]; [26],2 (Herbicidal rate of 20% or more and less than 40%)
same,"herbicidal effect rating, O: lambsquarters",lambsquarters [24]; [26],4 (Herbicidal rate of 70% or more and less than 90%)
same,"herbicidal effect grade, G: green foxtail",green foxtail [25]; 272 g/ha,4 (Herbicidal rate of 70% or more and less than 90%)
CC(=O)COc1ccc(-c2sc3ccccc3c2-c2c(O)c(C)nn(C)c2=O)cc1 [1-143],"I: wild oat, herbicidal effect rating",wild oat [1]; AAH 320 g/ha,0 (Herbicidal rate of 5% or less (almost no effect))
same,"R: persian speedwell, herbicidal effect",persian speedwell [2]; AAH 320 g/ha,5 (Herbicidal rate of 90% or more (almost completely withered))
same,"herbicidal effect on D (Chinese sprangletop), rating 0-5",Chinese sprangletop; 320 g/ha,0 (Herbicidal rate of 5% or less (almost no effect))
same,"O: lambsquarters, herbicidal effect",lambsquarters [3]; AAH 320 g/ha,4 (Herbicidal rate of 70% or more and less than 90%)
same,"N: redroot pigweed, herbicidal effect rating",redroot pigweed [4]; AAH 320 g/ha,4 (Herbicidal rate of 70% or more and less than 90%)
same,"N: redroot pigweed, herbicidal effect",redroot pigweed [5]; AAH 320 g/ha,4 (Herbicidal rate of 70% or more and less than 90%)
same,Herbicidal effect on A: late watergrass (grade 0-5),late watergrass; 320 g/ha applied herbicide,3 (Herbicidal rate of 40% or more and less than 70%)
same,"M: velvetleaf, herbicidal effect",velvetleaf [6]; AAH 320 g/ha,5 (Herbicidal rate of 90% or more (almost completely withered))
same,"F: southern crabgrass, herbicidal effect",southern crabgrass [7]; AAH 320 g/ha,3 (Herbicidal rate of 40% or more and less than 70%)
same,"P: chickweed, herbicidal effect",chickweed [8]; AAH 320 g/ha,5 (Herbicidal rate of 90% or more (almost completely withered))
same,"H: barnyard grass, herbicidal effect",barnyard grass [9]; AAH 320 g/ha,4 (Herbicidal rate of 70% or more and less than 90%)
same,"I: wild oat, herbicidal effect",wild oat [10]; AAH 320 g/ha,0 (Herbicidal rate of 5% or less (almost no effect))
same,"K: Italian ryegrass, herbicidal effect rating",Italian ryegrass [11]; AAH 320 g/ha,0 (Herbicidal rate of 5% or less (almost no effect))
same,"herbicidal effect on H (barnyard grass), rating 0-5",barnyard grass [12]; 320 g/ha,5 (Herbicidal rate of 90% or more (almost completely withered))
same,"K: Italian ryegrass, herbicidal effect",Italian ryegrass [13]; AAH 320 g/ha,4 (Herbicidal rate of 70% or more and less than 90%)
same,Herbicidal effect on B: Japanese bulrush (grade 0-5),Japanese bulrush; 320 g/ha applied herbicide,0 (Herbicidal rate of 5% or less (almost no effect))
same,Herbicidal effect on C: oval-leafed pondweed (grade 0-5),oval-leafed pondweed; 320 g/ha applied herbicide,0 (Herbicidal rate of 5% or less (almost no effect))
same,"J: blackgrass, herbicidal effect rating",blackgrass [14]; AAH 320 g/ha,0 (Herbicidal rate of 5% or less (almost no effect))
same,"L: windgrass, herbicidal effect rating",windgrass [15]; AAH 320 g/ha,0 (Herbicidal rate of 5% or less (almost no effect))
same,"H: barnyard grass, herbicidal effect rating",barnyard grass [16]; AAH 320 g/ha,4 (Herbicidal rate of 70% or more and less than 90%)
same,"R: persian speedwell, herbicidal effect rating",persian speedwell [17]; AAH 320 g/ha,3 (Herbicidal rate of 40% or more and less than 70%)
same,"J: blackgrass, herbicidal effect",blackgrass [18]; AAH 320 g/ha,0 (Herbicidal rate of 5% or less (almost no effect))
same,"P: chickweed, herbicidal effect rating",chickweed [19]; AAH 320 g/ha,0 (Herbicidal rate of 5% or less (almost no effect))
same,"L: windgrass, herbicidal effect",windgrass [20]; AAH 320 g/ha,4 (Herbicidal rate of 70% or more and less than 90%)
same,"G: green foxtail, herbicidal effect rating",green foxtail [21]; AAH 320 g/ha,4 (Herbicidal rate of 70% or more and less than 90%)
same,"M: velvetleaf, herbicidal effect rating",velvetleaf [22]; AAH 320 g/ha,4 (Herbicidal rate of 70% or more and less than 90%)
same,"F: southern crabgrass, herbicidal effect rating",southern crabgrass [23]; AAH 320 g/ha,3 (Herbicidal rate of 40% or more and less than 70%)
same,"O: lambsquarters, herbicidal effect rating",lambsquarters [24]; AAH 320 g/ha,5 (Herbicidal rate of 90% or more (almost completely withered))
same,"G: green foxtail, herbicidal effect",green foxtail [25]; AAH 320 g/ha,5 (Herbicidal rate of 90% or more (almost completely withered))
